Experimental data: article PMC4388811, “Co-Solvents as Stabilizing Agents during Heterologous Overexpression in Escherichia coli – Application to Chlamydial Penicillin-Binding Protein 6” (PLoS ONE, 2015)

Target: T1, PBP6Cp (Chlamydia pneumoniae, UniProt A0A0F7X2J0)
T1 construct: native N-terminal signal peptide and C-terminal transmembrane domain removed; OmpA leader (cleaved by E. coli signal peptidase I); C-terminal Strep tag kept; periplasmic expression in E. coli C43(DE3) with betaine
Test: TLC of lipid II DD-carboxypeptidase reaction
Format: biochemical
Settings: lipid II substrate; 50 mM MES pH 5.5, 2 mM MgCl2, 20% DMSO, 37 C, 4 h; inhibitor concentration not given; active-site serine acylation (covalent) described as general beta-lactam mechanism

CC1(C)S[C@@H]2[C@H](NC(=O)Cc3ccccc3)C(=O)N2[C@H]1C(=O)O [penicillin G]
TLC of lipid II DD-carboxypeptidase reaction: DD-carboxypeptidase activity of wild type PBP6Cp was stalled in the presence of penicillin G
